Test results: patent publication US20230098772A1, “ADVANCED MICROBIOME THERAPEUTICS ENGINEERED TO PRODUCE SEROTONIN IN VIVO” (DANMARKS TEKNISKE UNIVERSITET, priority 2019, published 2023)

What was measured:
mice [1] = test: Open Field Test after 21 days treatment, comparison with fluoxetine; format: in vivo, mice (C57BL/6); conditions: oN14 10^9 cells oral gavage, fluoxetine 10 mg/kg I.P.
Procedure: 9.1.3 Open Field Test: Each mouse was placed in a white, open-roof, well lite, 50 cm (length)×50 cm (width)×38 cm (height) chamber and recorded for 10 minutes following previously described methods (Spohn, S. N. et al., 2016). Mice were then placed back into their original cage. Fecal pellets produced during the 10-minute test were counted. Recordings were then post processed and analyzed using BehaviorCloud as previously described (Spohn, S. N. et al., 2016). Mouse tracking software recorded total path of movement of each mouse, total distance traveled, time spent in the inner zone defined as the […] and outer zone defined as the outer 10 cm border closest to the walls, number of times entering the inner zone, and distance traveled within the inner zone.
(§1) 10.1.1 Administration: as described for oral administration in 6.1.1, but with the following modifications: The mice were administered sterile PBS only (PBS) or freshly-grown 10^9 cells of E. coli Nissle strain designated oN14 (E. coli Nissle strain oN comprising pMUT14-ser) in sterile PBS (oN14) by oral gavage. Additionally, the mice were administered a 200 μl intraperitoneal (I.P.) injection of saline or the SSRI, fluoxetine at 10 mg/kg body weight in saline. The mice received the oral and IP administered co-treatments every 24 hrs at the same time of day for 21 days. Accordingly, the four mice treatment groups received: IP: saline/Gavage: PBS (negative control); IP: Fluoxetine/Gavage: PBS (SSRI positive comparator), IP: saline/Gavage: oN14 (oN14 positive comparator); and IP: Fluoxetine/Gavage: oN14 (positive combination comparator). 24 hours after the last administration, the mice were subjected to motility and behavioral testing.

mice [2] = test: Forced Swim Test after 21 days treatment, comparison with fluoxetine; format: in vivo, mice (C57BL/6); conditions: oN14 10^9 cells oral gavage, fluoxetine 10 mg/kg I.P.
Procedure: 9.1.2 Forced Swim Test: Each mouse was placed in clear cylindrical tanks (30 cm height×20 cm) with 15 cm of water at 23-25° C. for 6 minutes and recorded, as described by Ferguson (2001). Mice were then towel dried and placed under a heat lamp to dry to prevent hypothermia and then placed back in their original cage. Recordings were de-identified and a blinded observer, scored recordings for the time spent immobile during the last 4 minutes of the 6-minute test, as described by Can et al., (2012).
as §1, with “24 hours after the last administration, the mice were subjected to motility and behavioral testing.” left out

[3] = test system: 5-HT biosynthetic pathway; test: In vitro metabolite production by E. coli Nissle strains (LC-MS of culture media); format: cell-based; conditions: strains comprising pMUT10-5htp; vs folE WT; FIG. 5F
Procedure: Strains were grown in a modified M9 medium, containing 1× M9 salts (M6030, Sigma Aldrich), 0.2% (w/v) glucose, 0.1% (w/v) casamino acids (Cat. No. C2000, Teknova), 1 mM MgSO4, 50 μM FeCl3, 0.2% (v/v) 2YT medium (composition see below), and 50 mg/L of L-tryptophan unless stated otherwise. Kanamycin was added at a final concentration of 50 mg/L unless stated otherwise. Three single colonies were picked from each strain, grown in 300 μl medium in 96 deep-well plates and shaken at 250 rpm at 37° C. for 16 hours. The main culture was inoculated by diluting this pre-culture 1:100 into fresh medium, and cells were grown for 24 h under the same conditions. In the case of substrate feeding, TRP and 5-HTP was added to the growth medium in an amount of 100 mg TRP or 5-HTP/L. Afterwards, the culture supernatant was separated from cells using a 0.2 μm pore size filter, and frozen at −20° C. until analysis by LC-MS. […]
Detection of serotonin, tryptamine, tryptophan and 5-HTP were conducted by liquid chromatography mass spectrometry (LC-MS) measurements on a Dionex UltiMate 3000 UHPLC (Fisher Scientific, San Jose, Calif.) connected to an Orbitrap Fusion Mass Spectrometer (Thermo Fisher Scientific, San Jose, Calif.). […] Quantification of the compounds was based on calculations from calibration standards analyzed before and after sets of 24 samples. […]

Row | Molecule | distance travelled in the inner zone in OFT (mice [1]) | fecal boli produced during the OFT (mice [1]) | time spent in the inner zone in OFT (mice [1]) | total number of entries in the inner zone in OFT (mice [1]) | time of immobility in Forced Swim Test (mice [2]) | increase of hydroxylation of tryptophan to 5-hydroxytryptophan catalyzed by human tryptophan 5-hydroxylase [3] [fold]
1 | CNCCC(Oc1ccc(C(F)(F)F)cc1)c1ccccc1 (stereo not drawn) [Fluoxetine] | increased | reduction | increased | increased | significantly reduce | 
2 | mutant GCH1: mutant GTP cyclohydrolase I with T198I substitution encoded by mutated folE gene (protein, UniProt P0A6T5 2-222, looked up, variant T198I) GTP cyclohydrolase 1: PSLSKEAALVHEALVARGLETPLRPPVHEMDNETRKSLIAGHMTEIMQLLNLDLADDSLMETPHRIAKMYVDEIFSGLDYANFPKITLIENKMKVDEMVTVRDITLTSTCEHHFVTIDGKATVAYIPKDSVIGLSKINRIVQFFAQRPQVQERLTQQILIALQTLLGTNNVAVSIDAVHYCVKARGIRDATSATTTISLGGLFKSSQNTRHEFLRAVRHHN |  |  |  |  |  | 4
